Here are results for five molecules from patent publication US20230150951A1, “2,5- OR 2,6-DISUBSTITUTED HYDROQUINONE DERIVATIVES WITH AT LEAST ONE CARBOXY, SULFO OR AMIDO GROUP USEFUL AS MEDICAMENTS” (OM PHARMA SA, priority 2020, published 2023).

For series [1], the system named is STZ-induced diabetes model. In words: STZ-induced diabetes and diabetic wound healing model. It counts as in vivo, CD-1 mice. Particulars: IV; vs induced vehicle controls. The procedure: Diabetes murine models using streptozotocin (STZ-induced diabetes) were used to assess efficacy of compounds of the present invention for a diabetic wound healing and generate tissue samples to allow post in-life analysis of skin tissue.
These were purchased from Charles River and acclimated for 7 days upon arrival.
Aseptic technique and dosing: Although animals to be used in this study are immuno-competent, preparation of dosing solutions and dosing/weighing of animals were carried out in a sterile biosafety cabinet. IV dosing: Compounds were formulated in 5% DMSO: 10% Solutol: 10% PEG400: 75% PBS and pH adjusted to 7 with 0.5M NaOH solution. PO dosing: formulation is in water.
Animals were anaethetised and a full thickness 6 mm wound created using a sterilized biopsy punch. Wounds were imaged (Days 0). Animals were treated and imaged every 2 days out to day 14 (when control, non-diabetic mouse wounds were healed). Wound images were digitally assessed for area of wound and percentage closure versus time plotted graphically.
Treatment will continue for 2 weeks (14 days). Animal numbers in brackets are dosed for 7 days, then sampled for mid-study PD analysis.
Mid Study sampling: Following 7 days dosing 3 animals per group were killed and wound tissue removed and divided into 2 sections (A) and (B):
(A) First section is FFPE and stained with the following: H&E, Masson's Trichrome, CD31, TGF-β.
(B) Second section are homogenised and used for the following ELISAs: SOD, GTPx, Catalase, TNF-α, IL-6, TGF-β levels.

Series [2] has as its system DBA/2 mouse strain with STZ induction of diabetes. In words: STZ-induced diabetic retinopathy and nephropathy model in DBA/2 mice. Particulars: one and two weeks, FIG. 9. It counts as in vivo. As to the method: Therapeutic efficacy of the compounds according to the present invention was assessed using diabetic mouse model using the DBA/2 mouse strain with STZ induction of diabetes and follow diabetic retinopathy including kidney damage. Five weeks after induction of diabetes via low dose STZ injection for 5 consecutive days, the urinary albumin:Cr ratio is […] compared to 36.9 for age-matched controls.
For treatment of diabetic nephropathy, DBA/2 mice were induced with STZ (low dose for 5 consecutive days).
Treatment was performed for four weeks (IV dosing) with weekly assessment of blood glucose and urine albumin/creatinine levels. At the end of the treatment period animals, the following samples were taken: • Blood for measurement of glucose and Blood Urea Nitrogen (BUN) • Blood for measurement of serum creatinine • Urine for final albumin/creatinine ratio. • Kidney was resected and FFPE: Picro-Sirius Red, Masson's Trichrome and H&E staining was carried out to identify areas of fibrosis, along with evidence of Mesangial sclerosis, Arteriolar hyalinosis, Glomerular Basal Membrane (GBM) thickening
To assess compound effect on diabetic retinopathy, animals had weekly images taken via Fundus Camera. Immediately prior to sacrifice, animals were injected with FITC-dextran via tail vein. During sampling, the eyes were sampled and fixed in formalin. Retinal Flatmounts were prepared and examined fluorescently looking at compound effects on vascularity and leakiness of vessels (indicted by high background staining).

For series [3], the system named is human retinal endothelial cells (HRECs). The experiment in a line: Inner blood retinal barrier: HREC monolayer permeability to FITC-dextran. Particulars: for p < 0.05 (HREC permeability versus diabetic milieu): IL-β, after 90 min. It counts as cell-based. An excerpt:
The mechanisms of actions involved in the anti-permeability effect of the tested treatments were explored by assessing permeability to fluorescent dextran and proinflammatory cytokines production using their mRNA expression levels by RT-PCR.
Inner Blood Retinal Barrier conditions: primary human retinal endothelial cells (HRECs) were obtained from a vial of cryopreserved cells purchased from Innoprot (Vizcay, Spain). These cells were isolated from human retinal tissue of cadaveric eyes digested with 0.1 mg/mL collagenase type I at 37° C. for 1 hour. Then, endothelial cells were finally selected with CD31 antibody-coated magnetic beads (DynaBeads; Dynal, Oslo, Norway). HRECs were thawed in the laboratory and cultured in endothelial basal medium (EBM) containing, 5.5 mM D-glucose, 5% FBS (Fetal Bovine Serum), 100 U/mL penicillin, 100 μg/mL streptomycin, and ECG (Endothelial Cell Growth Supplement) supplement (Innoprot, Vizcay, Spain). Human fibronectin (MerckMillipore, Madrid, Spain) at 5 μg/mL was used for cell attachment. Cells at passages 2-3 will be used for the experiments. For experimentation, HRECs were grown to confluence and then cell culture media was changed to medium supplemented with 1% FBS for 24 h and then exposed to different treatments.
Conditions treatments: The same conditions specified for the experiment in ARPE-19 cells were used.
Measurement of HREC permeability: Permeability in HREC monolayers were obtained on permeable supports at 12×10^5 cells/well (24 wells, PCF filters, Merk Millipore). Inserts were incubated for 48 hours at 37° C. in 5% CO2-air to form the monolayer. At the end, medium was serum depleted 24 h before to proceed with the treatments. The lower chamber was filled with 600 μL of complete EBM medium and the upper chamber with 100 μL of cell suspension in serum depleted (1%).
To detect changes in the permeability, 100 μg/ml of fluorescent FITC-DEXTRAN (Sigma, Madrid, Spain), was added to the upper side of the insert. Aliquots of 200 μL from the basal compartment was read in a SpectraMax Gemini (Molecular Devices, Sunnyvale, Calif.) at a wavelength of excitation/emission 485/528 nm every 30 min. Finally, the concentration of dextran was determined by extrapolation of the fluorescence reads in a standard curve. Each condition was tested in triplicate.

The mark [4] stands for this setting: No 3-5: 25 mM D-Gluc + compound 25 μg/mL.
[5] abbreviates: No 6-8: 25 mM D-Gluc + compound 50 μg/mL + VEGF, TNF-α, IL-β (so in the source).
Where [6] appears, read: No 11-13: 25 mM D-Gluc + compound 25 μg/mL + VEGF, TNF-α, IL-β (diabetic milieu).
The mark [7] stands for this setting: No 11-13: compound 25 μg/mL + VEGF, TNF-α.
[8] abbreviates: No 14-16: 25 mM D-Gluc + compound 50 μg/mL + VEGF, TNF-α, IL-β (diabetic milieu).

Take `O=C(O)c1cc(O)c(C(=O)Nc2ccccc2C(=O)O)cc1O` [Ia-001a, 4-(2-carboxyphenylaminocarbonyl)-2,5-dihydroxybenzoic acid]: in series [1], the Blood glucose levels result was “significant reduction”. Moreover, the Blood glucose level result in series [2] is on record as “significantly reduced”.

On to `O=C(O)c1cc(NC(=O)c2cc(O)c(C(=O)Nc3ccc(O)c(C(=O)O)c3)cc2O)ccc1O` [Ic-007a, 5-(4-(3-carboxy-4-hydroxyphenylaminocarbonyl)-2,5-dihydroxybenzamido)-2-hydroxy benzoic acid], for which the “% permeability HREC” value is 126.3 ± 8.3% in series [3] (setting [4]), 127.4 ± 2.1% in series [3] (setting [5]), 111.6 ± 24.2% in series [3] (setting [6]) and 159.0 ± 23.9% in series [3] (setting [8]). Moreover, the “p < 0.05 (HREC permeability versus diabetic milieu)” value in series [3] (setting [7]) was “* (* p < 0.05 for FITC dextran leakage measured after 90 min in [ng/mL/cm^2] in comparison with diabetic milieu (25 mM D-Gluose + VEGF, TNF-α, IL-β))”.

With `O=C(O)c1cc(NC(=O)c2cc(O)cc(C(=O)Nc3ccc(O)c(C(=O)O)c3)c2O)ccc1O` [IIc-007a, 5-(3-(3-carboxy-4-hydroxyphenylaminocarbonyl)-2,5-dihydroxybenzamido)-2-hydroxy benzoic acid], the “% permeability HREC” value in series [3] (setting [4]) came out at 136.3 ± 16.7%; in series [3] (setting [5]), 147.7 ± 17.6%; in series [3] (setting [6]), 135.8 ± 16.6%; in series [3] (setting [8]) it was 145.2 ± 8.8%. For the same molecule, the “p < 0.05 (HREC permeability versus diabetic milieu)” value in series [3] (setting [7]) was “* (* p < 0.05 for FITC dextran leakage measured after 90 min in [ng/mL/cm^2] in comparison with diabetic milieu (25 mM D-Gluose + VEGF, TNF-α, IL-β))”.

As for `O=C(O)c1cc(O)c(CN(Cc2cc(O)c(C(=O)O)cc2O)Cc2cc(O)c(C(=O)O)cc2O)cc1O` [IIIc-061a, Tris(4-carboxy-2,5-dihydroxyphenylmethyl)amine], the Blood glucose levels result in series [1] is recorded as “significant reduction”. In addition, the Blood glucose level result in series [2] is reported as “significantly reduced”.

For the molecule `O=C(O)c1cc(O)cc(CS(=O)(=O)Cc2cc(O)cc(C(=O)O)c2O)c1O` [IVc-059a, 3-((2,5-Dihydroxy-3-carboxyphenyl)methylsulfonylmethyl)-2,5-dihydroxybenzoic acid], the Blood glucose levels result in series [1] is reported as “significant reduction”. Also, in series [2], the Blood glucose level entry is listed as “significantly reduced”. The “% permeability HREC” value in series [3] (setting [4]) amounted to 109.9 ± 24.7%; in series [3] (setting [5]), 135.4 ± 6.7%; in series [3] (setting [6]), 124.0 ± 6.3%; in series [3] (setting [8]) it was 115.3 ± 14.7%. In addition, the “p < 0.05 (HREC permeability versus diabetic milieu)” value in series [3] (setting [7]) is “* (* p < 0.05 for FITC dextran leakage measured after 90 min in [ng/mL/cm^2] in comparison with diabetic milieu (25 mM D-Gluose + VEGF, TNF-α, IL-β))”; in series [3] (No 14-16: compound 50 μg/mL + VEGF, TNF-α), “* (* p < 0.05 for FITC dextran leakage measured after 90 min in [ng/mL/cm^2] in comparison with diabetic milieu (25 mM D-Gluose + VEGF, TNF-α, IL-β))”.
